The record followed here is ChEMBL document CHEMBL1201862, “PubChem BioAssay data set” (2004).

Some test systems named below: A498; COLO 205; EKVX; HCT-15; HOP-92; KM12; MDA-MB-435; NCI-H226; OVCAR-4; OVCAR-8; SF-268; SK-MEL-28; SK-MEL-5; SN12C; SNB-19; T47D; TK-10; U-251; UO-31; CAKI-1.
Assay in all cases: growth of human tumour cells (NCI), 48 h

Molecules are shown by their SMILES.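 Briefly, cells in 96-well plates were exposed to five compound concentrations for 48 h, and endpoints were estimated by linear interpolation. GI50: concentration for 50% inhibition of growth.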 Activity calls are given as the source filed them. No stated cut-off is given here; in the data, active = GI50 up to about 1.1 µM and inactive = higher.

Take `CN1N=C(c2ccncc2)OC1c1ccccc1F` (centres undefined): the GI50 with A498 was > 100 µM (inactive); in the test with COLO 205, > 100 µM (inactive); in the test with EKVX it was > 100 µM (inactive); in the test with HCT-15, greater than 100 µM; in the test with HOP-92, > 100 µM (inactive); in the test with KM12, > 100 µM (inactive). Moreover, the GI50 in the test on MDA-MB-435 is > 100 µM (inactive); in the test with NCI-H226, 73.1 µM (inactive); in the test with OVCAR-4 it was > 100 µM (inactive); with OVCAR-8, > 100 µM (inactive); in the test on SF-268 it was > 100 µM (inactive); with SK-MEL-28, > 100 µM (inactive). Moreover, the GI50 is > 100 µM (inactive) with SK-MEL-5; > 100 µM (inactive) in the test with SN12C; > 100 µM (inactive) in the test with SNB-19; 51.8 µM (inactive) in the test on T47D; > 100 µM (inactive) in the test on TK-10; > 100 µM (inactive) in the test on U-251. In addition, in the test with UO-31, the GI50 was > 100 µM (inactive).
As for `O=C1CC(c2ccc(Cl)cc2)C2(C(=O)NC(=S)NC2=O)C(c2ccc(Cl)cc2)C1` (centres undefined), the GI50 in the test with A498 is 15.9 µM (inactive); in the test on CAKI-1, 25.1 µM (inactive); with COLO 205, 16.8 µM (inactive); in the test on EKVX it was 29 µM (inactive); in the test with HCT-15, 23.7 µM; in the test on HOP-92, 5.31 µM (inactive). Besides, the GI50 in the test with KM12 was 18.5 µM (inactive); with MDA-MB-435, 19.5 µM (inactive); with NCI-H226, 21.7 µM (inactive); in the test on OVCAR-4, 17.5 µM (inactive); in the test on SF-268, 16.2 µM (inactive); in the test with SK-MEL-28, 16.1 µM (inactive). Besides, the GI50 is 17 µM (inactive) in the test with SK-MEL-5; 18.2 µM (inactive) in the test with SN12C; 18.4 µM (inactive) with SNB-19; 23.7 µM (inactive) with T47D; 41.1 µM (inactive) in the test on TK-10; 29.2 µM (inactive) in the test on U-251. Further, the GI50 with UO-31 was 23.9 µM (inactive).
For `CC(=O)OC(=C(C#N)C#N)c1nccnc1C(C)=O`, the GI50 is > 20 µM (inactive) in the test on A498; > 20 µM (inactive) in the test on CAKI-1; 4.55 µM (inactive) with COLO 205; > 20 µM (inactive) in the test with EKVX; greater than 20 µM in the test with HCT-15; > 20 µM (inactive) with HOP-92. Further, the GI50 in the test on KM12 is 4.98 µM (inactive); in the test on MDA-MB-435, > 20 µM (inactive); in the test on NCI-H226, 6.01 µM (inactive); in the test with OVCAR-4, > 20 µM (inactive); in the test on OVCAR-8 it was > 20 µM (inactive); with SF-268 it was 3.59 µM (inactive). Also, the GI50 with SK-MEL-28 is 9.77 µM (inactive); with SK-MEL-5, 6.32 µM (inactive); in the test on SN12C it was > 20 µM (inactive); in the test on SNB-19, > 20 µM (inactive); in the test on T47D, > 20 µM (inactive); in the test with U-251, 6.07 µM (inactive). Moreover, the GI50 in the test on UO-31 was > 20 µM (inactive).
Consider `CN(C)C1(N(C)C)Oc2c(c(=O)n(C)c(=O)n2C)C(c2ccc(C(F)(F)F)cc2)C1(F)F` (centres undefined), for which the GI50 is > 100 µM (inactive) in the test on A498; > 100 µM (inactive) in the test with CAKI-1; > 100 µM (inactive) in the test on COLO 205; > 100 µM (inactive) in the test with EKVX; greater than 100 µM in the test on HCT-15; > 100 µM (inactive) in the test on HOP-92. The GI50 in the test with KM12, with MDA-MB-435, in the test with NCI-H226, in the test with OVCAR-4, with SF-268 and in the test on SK-MEL-28 was > 100 µM (inactive) each time. Moreover, the GI50 in the test on SK-MEL-5, in the test on SNB-19, with T47D, in the test with TK-10, in the test with U-251 and in the test on UO-31 was > 100 µM (inactive) each time.
Take `N#CC(C(=O)c1ccccc1F)c1nc2cc(C(F)(F)F)ccc2s1` (centres undefined): the GI50 in the test with A498 is 14 µM (inactive); in the test with CAKI-1, 32.3 µM (inactive); with COLO 205, 20.9 µM (inactive); with EKVX, 22.4 µM (inactive); in the test on HCT-15, 20.1 µM; in the test on HOP-92, 19.1 µM (inactive). Also, the GI50 was 32.5 µM (inactive) in the test with KM12; 25.8 µM (inactive) with MDA-MB-435; 33.2 µM (inactive) in the test on NCI-H226; 31.3 µM (inactive) with OVCAR-4; 31.6 µM (inactive) in the test on OVCAR-8; 30.3 µM (inactive) in the test with SF-268. Besides, the GI50 with SK-MEL-28 was 29.4 µM (inactive); with SK-MEL-5, 20.8 µM (inactive); in the test on SN12C, 23.1 µM (inactive); in the test on T47D, 25.9 µM (inactive); in the test with TK-10 it was 30.8 µM (inactive); in the test with U-251 it was 26.7 µM (inactive).
For `CC(C)(C)OC(=O)N[C@@H](Cc1ccccc1)C(=O)N1CC[C@@H](C(=O)N2[C@H]3CC4CC[C@@]3(CS2(=O)=O)C4(C)C)N1`, the GI50 was > 100 µM (inactive) with A498; > 100 µM (inactive) in the test on CAKI-1; 46.9 µM (inactive) in the test on COLO 205; 56.9 µM in the test with HCT-15; > 100 µM (inactive) in the test with HOP-92; 79.1 µM (inactive) in the test on KM12. Also, the GI50 was 51.9 µM (inactive) with MDA-MB-435; > 100 µM (inactive) with NCI-H226; 68.1 µM (inactive) with OVCAR-4; 59.3 µM (inactive) in the test with OVCAR-8; > 100 µM (inactive) in the test on SF-268; > 100 µM (inactive) in the test on SK-MEL-28. For the same compound, the GI50 is 24.6 µM (inactive) in the test with SK-MEL-5; 59 µM (inactive) in the test on SN12C; 93.8 µM (inactive) with SNB-19; 0.752 µM (active) in the test with T47D; > 100 µM (inactive) with U-251.
For the compound `CC(C)C1OC(N)=C(C#N)C1(C#N)C#N` (centres undefined), the GI50 was > 100 µM (inactive) in the test with A498; 3.79 µM (inactive) in the test on CAKI-1; 18.2 µM (inactive) in the test with COLO 205; 62.2 µM (inactive) with EKVX; greater than 10 µM with HCT-15; 31.3 µM (inactive) in the test with HOP-92. Moreover, the GI50 was > 100 µM (inactive) with KM12; 29.6 µM (inactive) in the test on MDA-MB-435; > 100 µM (inactive) in the test with NCI-H226; 41.9 µM (inactive) in the test with OVCAR-8; 44.2 µM (inactive) in the test on SF-268; 33.3 µM (inactive) in the test with SK-MEL-5. The GI50 with SN12C was 69.7 µM (inactive); in the test with SNB-19, 46.8 µM (inactive); in the test on T47D, 67.3 µM (inactive); in the test with TK-10, 83.4 µM (inactive); in the test on U-251, 54.1 µM (inactive); in the test with UO-31, 33.1 µM (inactive).
Regarding `COc1cc(/C=C2/C(=O)N(C(=O)c3ccccc3O)N=C2C)cc(OC)c1OC`, the GI50 with A498 is 0.473 µM (active); in the test with COLO 205, 34.4 µM (inactive); with EKVX, 5.5 µM (inactive); in the test on HCT-15, 3.17 µM; in the test on HOP-92 it was 1.07 µM (active); in the test with KM12 it was 0.455 µM (active). The GI50 was 0.863 µM (active) in the test on MDA-MB-435; 6.21 µM (inactive) with NCI-H226; 2.73 µM (inactive) with OVCAR-4; 1.67 µM (inactive) with OVCAR-8; 8.59 µM (inactive) in the test on SF-268; 53.7 µM (inactive) with SK-MEL-28. For the same compound, the GI50 was 2.88 µM (inactive) in the test on SK-MEL-5; 3.1 µM (inactive) in the test with SN12C; 1.44 µM (inactive) with SNB-19; 1.12 µM (active) in the test on T47D; 9.79 µM (inactive) with TK-10; 1.2 µM (inactive) in the test on U-251. The GI50 in the test with UO-31 is 0.558 µM (active).
`N=C(NCc1ccccc1)N/N=C\c1ccnc2ccccc12`: the GI50 was 12.5 µM (inactive) in the test on A498; 1.71 µM (inactive) in the test on COLO 205; 10 µM (inactive) in the test on EKVX; 16 µM in the test on HCT-15; 1.43 µM (inactive) in the test with HOP-92; 15.9 µM (inactive) in the test on KM12. Further, the GI50 was 9.23 µM (inactive) in the test with MDA-MB-435; 17.1 µM (inactive) in the test with NCI-H226; 11.7 µM (inactive) with OVCAR-4; 13.5 µM (inactive) with OVCAR-8; 12.3 µM (inactive) in the test with SF-268; 12 µM (inactive) with SK-MEL-28. The GI50 in the test with SK-MEL-5 was 6.52 µM (inactive); in the test on SN12C, 15.1 µM (inactive); in the test with SNB-19 it was 17.9 µM (inactive); with T47D, 1.41 µM (inactive); in the test with TK-10, 14.8 µM (inactive); in the test with U-251, 15.6 µM (inactive). The GI50 with UO-31 was 10.4 µM (inactive).
Regarding `COc1ccc2nccc(SCC(=O)O)c2c1`, the GI50 with A498 is > 100 µM (inactive); in the test on CAKI-1 it was > 100 µM (inactive); with EKVX it was > 100 µM (inactive); with HCT-15 it was greater than 100 µM; in the test on HOP-92, > 100 µM (inactive); in the test on KM12, > 100 µM (inactive). The GI50 in the test on MDA-MB-435, in the test on NCI-H226, in the test on OVCAR-4, with OVCAR-8, in the test on SF-268 and in the test on SK-MEL-28 was > 100 µM (inactive) in each case. For the same compound, the GI50 in the test with SK-MEL-5, in the test on SN12C, in the test with SNB-19, in the test with T47D, in the test on TK-10 and in the test on U-251 was > 100 µM (inactive) throughout. Also, the GI50 with UO-31 is > 100 µM (inactive).
With `CC1(C)S[C@@H]2[C@H](N3C(=O)c4ccccc4C3=O)CN2[C@H]1NC(=O)N[C@@H]1N2C[C@@H](N3C(=O)c4ccccc4C3=O)[C@H]2SC1(C)C`, the GI50 in the test on A498 is > 100 µM (inactive); in the test with CAKI-1 it was > 100 µM (inactive); in the test with COLO 205, > 100 µM (inactive); with HCT-15 it was greater than 100 µM; in the test with HOP-92, 42.2 µM (inactive); with KM12 it was > 100 µM (inactive). The GI50 with MDA-MB-435 is > 100 µM (inactive); with NCI-H226 it was > 100 µM (inactive); in the test on OVCAR-4, > 100 µM (inactive); in the test on OVCAR-8 it was 58.3 µM (inactive); in the test on SF-268, 28.9 µM (inactive); with SK-MEL-28, > 100 µM (inactive). The GI50 in the test on SK-MEL-5 was > 100 µM (inactive); in the test on SN12C it was > 100 µM (inactive); in the test on SNB-19, 43.2 µM (inactive); in the test with T47D it was > 100 µM (inactive); in the test on TK-10, 77.1 µM (inactive); with U-251, 27 µM (inactive). Also, the GI50 with UO-31 was > 100 µM (inactive).
